The text below walks through data of paper PMC8772433 (Nature structural & molecular biology, 2021).

This test has as its target SARS-CoV-2 ORF3a (3a), dimer (Severe acute respiratory syndrome coronavirus 2, UniProt P0DTC3). Description: patch-clamp current recording, excised inside-out patches of 3a-proteoliposomes. Type of test: biochemical. The settings on record: symmetric 150 mM KCl, pH 7.2, -80 mV, room temperature; soy PC proteoliposomes; flickery block at negative potentials. In general terms: In patch-clamp work, channel activity is measured electrically.

SARS-CoV-2 ORF3a (3a), dimer, sequence (P0DTC3 whole entry): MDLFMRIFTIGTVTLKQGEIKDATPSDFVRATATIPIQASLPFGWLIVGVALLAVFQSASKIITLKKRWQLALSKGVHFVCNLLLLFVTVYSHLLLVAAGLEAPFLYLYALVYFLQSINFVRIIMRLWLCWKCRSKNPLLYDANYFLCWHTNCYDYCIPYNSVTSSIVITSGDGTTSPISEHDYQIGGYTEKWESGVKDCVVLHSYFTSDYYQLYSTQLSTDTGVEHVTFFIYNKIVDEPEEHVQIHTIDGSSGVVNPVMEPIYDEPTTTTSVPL

One may read the IC50 as the concentration needed to halve the response being measured. Ruthenium Red returned an IC50 of 90 ± 10 µM.
